Data taken from patent US20050042180A1, “Powder formulation containing the CGRP antagonist 1 [N2-[3,5-dibromo-N-[[4-(3,4-dihydro-2 (1H)-oxoquinazolin-3-yl)-1-piperidinyl]carbonyl]-D-tyrosyl]-L-lysyl]-4-(4-pyridinyl)-piperazin, process for preparing and the use thereof as inhalation powder” (Boehringer Ingelheim International GmbH, priority 2003, published 2005).

Columns and labels:
[1] = conventional formulations; cited from earlier work
[2] = Bioavailability after administration by inhalation as powder inhalant; conditions: in vivo, inhaled or intranasal; administered by inhalation as powder inhalant; based on the fine content of the formulation (FPD, USP 24 Suppl. 2000)

NCCCC[C@H](NC(=O)[C@@H](Cc1cc(Br)c(O)c(Br)c1)NC(=O)N1CCC(N2Cc3ccccc3NC2=O)CC1)C(=O)N1CCN(c2ccncc2)CC1 [A, 1-[N^2-[3,5-dibromo-N-[[4-(3,4-dihydro-2(1H)-oxoquinazolin-3-yl)-1-piperidinyl]carbonyl]-D-tyrosyl]-L-lysyl]-4-(4-pyridinyl)-piperazine]
oral bioavailability [1]: very limited | bioavailability [2]: ~60%
